These results are taken from patent US20100009949A1, “NOVEL METHOD” (BioXell S.p.A., priority 2001, published 2010).

For one experiment, the system named is human BPH cells. Conditions: primary cultures of human BPH cells; Crescioli et al. 2004; cited from earlier work.
The test system of experiment [1] is prostate. Conditions: phase II clinical trials for BPH, preliminary results (Montorsi, 2005); cited from earlier work.
A further experiment relates to KGF receptor (KGFR). Kind of experiment: KGF-induced KGFR autotransphosphorylation (immunoprecipitation, Western blot) in DU145 cells. It is filed as cell-based, human. The procedure:
(§1) Immunoprecipitation and Western blot analysis. Protein extraction and immunoprecipitation were performed as previously described (Bonaccorsi et al. 1997). Briefly, cells were scraped in PBS supplemented with 1 mM Na3VO4, centrifuged and resuspended in lysis buffer (20 mM Tris, pH 7.4, 150 mM NaCl, 0.25% NP-40, 1 mM Na3VO4, 1 mM phenylmethyl-sulfonyl fluoride (PMSF)). After protein measurement (Coomassie kit), aliquots of cell lysates containing equal amount of proteins (500 ug) were incubated for 1 hour with 30 ul of Protein A (or Protein G)-Sepharose for preclearing. Precleared lysates were then incubated for 1 hour using 5 ug of specific anti-KGFR antibodies on ice followed by overnight incubation at 4° C. with 30 ul of Protein A (or Protein G)-Sepharose. The immunobeads were washed three times in lysis buffer and then resuspended in 10 ul of 2× Laemmli's reducing sample buffer (62.5 mM Tris pH 6.8, 10% glycerol, 2% SDS, 2.5% pyronin and 200 mM dithiothreitol), boiled at 95° C. for 5 minutes and loaded onto 8% polyacrylamide-bisacrylamide gels. […]

The subject of another experiment is PI3K. In words: PI3K assay (immunokinase) after KGF stimulation of DU145 cells. It is filed as cell-based, human. Conditions: DU145, 1×10^−8 M, KGF 10 ng/ml. The procedure:
PI3K assay: PI3K activity was evaluated in vitro assay as previously described (Luconi et al. 2004). Briefly, cells were stimulated with KGF (5 min) in the presence or absence of 1-alpha-fluoro-25-hydroxy-16,23E-diene-26,27-bishomo-20-epi-cholecalciferol, scraped in PBS supplemented with 1 mM Na3VO4, centrifuged and extracted with lysis buffer (20 mM Tris, pH 7.4, 137 mM NaCl, 1 mM CaCl2, 1 mM MgCl2, 1% NP-40, 1 mM Na3VO4, 1 mM PMSF). After measurement of proteins, the aliquots of cell extracts containing equivalent amount of proteins (500 ug) were incubated for 1 hour with 50 ul of Protein G-Sepharose for preclearing. Precleared lysates were then incubated with an antiphosphotyrosine PY20 antibody overnight at 4° C. with 50 ul of Protein G-Sepharose as described above. The Sepharose beads were washed two times with lysis buffer and twice with a 10 mM Tris-HCl (pH 7.4) containing 0.1 mM EGTA and 5 mM LiCl. After removal of the last wash, the beads were suspended in kinase buffer (10 mM Tris-HCl, 150 mM NaCl, 5 mM EDTA) containing 20 ug of L-alpha-phosphatidylinositol, 25 mM MgCl2 and 10 uCi of [gamma-^32P]ATP, and incubated for 20 min at room temperature. The reaction was stopped by the addition of 60 ul of HCl 6M and 160 ul of a mixture of chloroform and methanol (1:1). […] Quantifications of the bands was performed using a Kodak image analysis system.

The test system of experiment [2] is DU145 cells. Kind of experiment: Cell proliferation assay (cell counting), DU145. It is filed as cell-based, human. The protocol: (§2) Cell proliferation assay: All proliferation tests were performed after 24 h of cell starvation in phenol red- and serum-free medium containing 0.1% BSA. After starvation, cells were incubated in the same medium as before, with or without specific stimuli. Thereafter, cells were trypsinized, and each experimental point was derived from counting in the hemocytometer and then averaging at least six different fields for each well as previously reported (Crescioli et al. 2003). Experiments were performed seeding 4×10^4 cells onto 12-well plates in growth medium and incubated for 48 h with: 1) increasing concentrations of 1-alpha-fluoro-25-hydroxy-16,23E-diene-26,27-bishomo-20-epi-cholecalciferol (1×10^−12, 1×10^−11, 1×10^−10, 1×10^−9, 1×10^−8 M) with or without fixed concentration of KGF (10 ng/ml) or fixed concentration of bFGF (10 ng/ml); 2) fixed concentration of LY 294002 (10 nM) with or without KGF (10 ng/ml). In the same experiment each experimental point was repeated in triplicate and experiments were performed at least three times. Cell growth results are expressed as the percentage of growth compared with their relative controls.
Statistical analysis: All the data are shown as mean±SEM of the indicated number of experiments. Statistical analysis was performed with ANOVA and Student's T test for unpaired and, when applicable, for paired data. IC50 for dose response curves were calculated using the program ALLFIT.

The subject of the next experiment is PC3 cells. Kind of experiment: Cell proliferation assay (cell counting), PC3. It is filed as cell-based, human. Conditions: control 100±17. The protocol: as §2
In experiment [3] the test system is DU145 cells. In words: Annexin-V binding assay (phosphatidylserine exposure, apoptosis). It is filed as cell-based, human. Conditions: DU145, 8 hours, 1×10^−8 M; control 57±1.7; n=6, p=0.017. The procedure:
Annexin-V binding assay. Annexin-V binding assay was used to detect translocation of membrane phosphatidylserine (PS) from the inner to the outer side of the plasma membrane, since the exposure of PS is considered an early sign of apoptosis (Kagan et al. 2000). The assay was performed by using the “Annexin-V-Fluos staining Kit” (Roche). Before treatment, cells (1×10^6) were kept in serum-free medium for at least 24 h, then cells were incubated for 8 hours in the presence or absence of Compound 1 (1×10^−8 M), cells (1×10^6) were washed, trypsinized, centrifuged. After two washed in PBS, cells were resuspended in 100 ul of incubation buffer (supplied by manufacturer), 2 ul of Annexin-V-Fluos labeling reagent (Ann-V-F, Annexin-V conjugated to fluorescein, supplied at the 200× concentration by Roche) and 2 ul of propidium iodide solution (PI, 30 ug/ml in PBS) were added. After incubation (15 minutes in the dark at room temperature) samples were analyzed by flow cytometry. For each experimental set, two cell suspensions were prepared for instrumental setting and data analysis: 1) by omitting both Ann-V-F and PI staining (nonspecific fluorescence sample), and 2) by omitting only the PI staining (sample for compensation, see below). […] Fluorescence compensation was set by acquiring […] labeled with only Ann-V-F. For each sample 10.000 events were recorded at flow rate of 200/300 cells/s. […]

For experiment [4], the system named is DU145 cells. In words: Matrigel invasion assay (Boyden chambers), DU145. It is filed as cell-based, human. The settings on record: 1×10^−8 M, KGF 10 ng/ml, 24 h, no pre-incubation. The procedure:
Invasion assay: Invasion assays were performed as described previously (Bonaccorsi et al. 2000 and 2004a and 2004b) according to Albini et al. (1987) using the Boyden chambers equipped with 8 um porosity polyvinylpyrrolidone-free polycarbonate filters (VWR International, Milan, Italy). A thin layer of Matrigel solution (50 ug/ml) was overlaid on the upper surface of the filter and allowed to gel by incubating the filters at 37° C. for 30 min. Cell ability to invade the substrate was assessed by using some different stimuli: keratinocyte growth factor, KGF (10 ng/ml), in presence or in absence of the inhibitor, 1-alpha-fluoro-25-hydroxy-16,23E-diene-26,27-bishomo-20-epi-cholecalciferol (1×10^−8 M). These molecules were added to the bottom well of the Boyden chambers. 9.5×10^4 cells were then added to the top of the chambers and incubated for 24 h at 37° C. Migrated cells were quantitated by counting cells with a Zeiss microscope (Oberkochen, Germany) equipped with brightfield optics (40× magnification). Results are expressed as the percentage of number of migrated cells per high-power field respect to control.

The next experiment concerns AKT. Kind of experiment: AKT serine phosphorylation (Western blot) in KGF-stimulated DU145 cells. It is filed as cell-based, human. The settings on record: DU145, 1×10^−8 M, KGF 10 ng/ml. The procedure:
as §1

In experiment [5] the test system is prostate. Conditions: intact and castrated, testosterone-replaced rats; Crescioli et al. 2004; cited from earlier work.

Turning to `C=C1/C(=C\C=C2/CCC[C@]3(C)C([C@@H](C)C/C=C/C(O)(CC)CC)=CC[C@@H]23)C[C@@H](O)C[C@@H]1F` [Compound 1, 1-alpha-fluoro-25-hydroxy-16,23E-diene-26,27-bishomo-20-epi-cholecalciferol], the “Effect on prostate cell proliferation in vitro” value with human BPH cells is “decrease prostate cell proliferation”. The “Prostate volume compared to placebo” value in the experiment with prostate [1] is on record as “significant reduction of prostate volume”. Further, in the experiment with KGF receptor (KGFR) (DU145, 5 minutes pre-incubation, 1×10^−8 M, KGF 10 ng/ml), the “Effect on KGF-induced autotransphosphorylation of KGFR” value was “abrogated”. Further, in the experiment with KGF receptor (KGFR) (DU145, after 4 hours incubation with 4 ug/ml alpha-amanitin), the “Inhibitory effect on KGFR autophosphorylation after alpha-amanitin” value is on record as “still present”. Besides, the “Effect on KGF-stimulated PI3K activity” value in the experiment on PI3K is on record as “inhibited the stimulatory effect of KGF on PI3K activity”. Also, the “percentage number of cells, bFGF + Compound 1” value with DU145 cells [2] (DU145, bFGF 10 ng/ml + Compound 1 1×10^−8 M, control 100±8.6) is 74.1±9.2 percentage. Moreover, the IC50 in the experiment on DU145 cells [2] (Homo sapiens, DU-145, basal, 48 h, cell counting, read-out: IC50 of inhibition of basal DU145 cell proliferation) stood at 0.0221 ± 0.0191 nM. The “Inhibition of KGF-stimulated DU145 proliferation” value with DU145 cells [2] (KGF 10 ng/ml, 48 h, increasing concentrations of the analogue) was “completely and dose-dependently inhibits proliferation”. Moreover, in the experiment with PC3 cells (PC3, KGF 10 ng/ml + Compound 1 1×10^−8 M), the “percentage number of cells, KGF + Compound 1” value is reported as 69.9±9.9 percentage. Also, the “percentage Annexin-V positive live cells” value with DU145 cells [3] is recorded as 62±1.2 percentage. Further, the “Effect on KGF-stimulated Matrigel invasion of DU145 cells” value with DU145 cells [4] is given as “completely inhibited”. In addition, the “Effect on KGF-stimulated AKT serine phosphorylation” value in the experiment with AKT is recorded as “inhibited KGF-stimulated AKT serine phosphorylation”. The “Effect on prostate growth in vivo” value with prostate [5] is given as “inhibition of prostate growth”.

With “bFGF: growth factor used as stimulus of DU145 proliferation (10 ng/ml)”, in the experiment on DU145 cells [2] (DU145, bFGF 10 ng/ml, control 100±8.6), the “percentage number of cells, bFGF alone” value turned out to be 138±19.5 percentage.

B1: KGF: Keratinocyte growth factor, stimulus, obtained from Prepro Tech EC (protein, UniProt P21781 32-194, looked up)
Fibroblast growth factor 7: CNDMTPEQMATNVNCSSPERHTRSYDYMEGGDIRVRRLFCRTQWYLRIDKRGKVKGTQEMKNNYNIMEIRTVAVGIVAIKGVESEFYLAMNKEGKLYAKKECNEDCNFKELILENHYNTYASAKWTHNGGEMFVALNQKGIPVRGKKTKKEQKTAHFLPMAIT
In the case of B1, the “percentage number of cells, KGF alone” value with PC3 cells (PC3, KGF 10 ng/ml) was 121.3±13 percentage.
